From PMC3362575, “Synthesis and Biological Evaluation of Phenanthrenes as Cytotoxic Agents with Pharmacophore Modeling and ChemGPS-NP Prediction as Topo II Inhibitors” (PLoS ONE, 2012)
Values after ≈ are worked out from the molar mass of the structure shown.

Columns and labels:
human cancer cell lines = experiment: MTT cytotoxicity assay, ranges over the cancer cell line panel; assay type: cell-based; conditions: all human cancer cell lines
Description: (§1) The cytotoxic assay of 11 naturally occurring and 19 synthesized phenanthrenes was carried out on a diverse set of human liver (HepG2 and Hep3B), oral (Ca9-22), lung (A549) and breast (MEA-MB-231 and MCF7) cancer cell lines, and a human fetal lung fibroblast (MRC-5) cell line (Tables 1 and 2).
(§2) Compounds were tested against human liver (HepG2 and Hep3B), oral (Ca9-22), lung (A549), breast (MEA-MB-231 and MCF7) cancer cell lines, and the human fetal lung fibroblast (MRC-5) cell line using an established colorimetric MTT assay protocol. The absorbance was measured at 550 nm using a microplate reader. The IC50 is the concentration of agent that reduced cell growth by 50% under the experimental conditions.

MDA-MB-231 = experiment: MTT cytotoxicity assay, MDA-MB-231; assay type: cell-based, human; conditions: Homo sapiens
Description: as §1, §2

Hep3B = experiment: MTT cytotoxicity assay, Hep3B; assay type: cell-based, human; conditions: Homo sapiens, Hep3B
Description: as §1, §2

Ca9-22 = experiment: MTT cytotoxicity assay, Ca9-22; assay type: cell-based, human; conditions: Homo sapiens
Description: as §1, §2

A549 = experiment: MTT cytotoxicity assay, A549; assay type: cell-based, human; conditions: Homo sapiens
Description: as §1, §2

MRC-5 = experiment: MTT cytotoxicity assay, MRC-5 fetal lung fibroblast; assay type: cell-based, human; conditions: Homo sapiens, normal fetal lung fibroblast
Description: as §1, §2

MCF-7 = experiment: MTT cytotoxicity assay, MCF-7; assay type: cell-based, human; conditions: Homo sapiens; for IC50: MTT; for MCF-7 activity class (from IC50): MCF7, Table S3, read-out: Scale Exptl. (MCF-7 activity class)
Description: as §1, §2
The pharmacophore modeling with Catalyst HypoGen was performed via Discovery Studio 2.1 (Accelrys, San Diego, CA, USA). Twenty-nine phenanthrene derivatives were collected from the natural plant, C. arisanensis, and from chemical synthesis (Figure 2). Cytotoxicity against MCF-7 cells was determined by the MTT assay and the concentration (µg/mL) of test compound which inhibited 50% of the cancer cells (IC50) was used in the generation of the pharmacophore model. An IC50 value of >20 µg/mL was defined as 20 µg/mL. All experimental IC50 values spanned about 2–3 orders of magnitude from 0.09 to 20 µg/mL. The 2D/3D structures of compounds were generated using ChemBioOffice 2008 (Cambridge Scientic Computing, Cambridge, Massachusetts, USA) and then optimized in a Dreiding force field. The conformational ensemble of each compound was generated using the best conformational analysis method based on a CHARMM force field with a 20 kcal/mol energy threshold above the global minimum. A maximum limit of 255 conformations was used to cover maximum conformational space. The best 3D arrangements of chemical functionalities should explain the activity variations among the 29 compounds. Thirty runs with different parameters were performed for the best pharmacophore hypothesis. Four chemical features, including hydrogen-bond acceptor (HBA), hydrogen-bond donor (HBD), hydrophobic (HYD), and aromatic ring (AR) features, were also tested during the building of pharmacophore hypotheses (Table S1; Text S1). The best hypotheses were selected via a correlation and a cost analysis in Catalyst HypoGen.

HepG2 = experiment: MTT cytotoxicity assay, HepG2; assay type: cell-based, human; conditions: Homo sapiens
Description: as §1, §2

[1] = MDA-MB-231, Table 2, synthesized phenanthrenes
[2] = Table 2, synthesized phenanthrenes
[3] = Ca9-22, Table 2, synthesized phenanthrenes
[4] = A549, Table 2, synthesized phenanthrenes
[5] = MRC5, Table 2, synthesized phenanthrenes
[6] = MCF7, Table 2, synthesized phenanthrenes
[7] = HepG2, Table 2, synthesized phenanthrenes
[8] = MDA-MB-231, Table 1, natural phenanthrenes
[9] = Ca9-22, Table 1, natural phenanthrenes
[10] = A549, Table 1, natural phenanthrenes
[11] = MRC5, Table 1, natural phenanthrenes
[12] = MCF7, Table 1, natural phenanthrenes
[13] = HepG2, Table 1, natural phenanthrenes

| Structure (SMILES) | activity against all human cancer cell lines (human cancer cell lines) | IC50 (MDA-MB-231; [1]) | IC50 (Hep3B; [2]) | IC50 (Ca9-22; [3]) | IC50 (A549; [4]) | IC50 (MRC-5; [5]) | IC50 (MCF-7; [6]) | MCF-7 activity class (from IC50) (MCF-7) | IC50 (HepG2; [7]) | IC50 (MDA-MB-231; [8]) | IC50 (Hep3B; Table 1, natural phenanthrenes) | IC50 (Ca9-22; [9]) | IC50 (A549; [10]) | IC50 (MRC-5; [11]) | IC50 (MCF-7; [12]) | IC50 (HepG2; [13]) |
| --- | --- | --- | --- | --- | --- | --- | --- | --- | --- | --- | --- | --- | --- | --- | --- | --- |
| COC1=CC(=O)c2ccc3cc(OC)cc(OC)c3c2C1=O [Compound 5b, 3,5,7-Trimethoxy-1,4-phenanthrenequinone] | marginal activities | 19 ± 0.55 µg/mL (≈ 63.6 µM) | 15.9 ± 0.21 µg/mL (≈ 53.5 µM) | 15.25 ± 0.05 µg/mL (≈ 51.1 µM) | 15.7 ± 0.17 µg/mL (≈ 52.7 µM) | > 20 µg/mL | 14.4 ± 0.28 µg/mL (≈ 48.3 µM) | 1 to 20 µg/mL | 13 ± 0.21 µg/mL (≈ 43.5 µM) |  |  |  |  |  |  |  |
| COc1cc(OC)c2c(ccc3c(OC)ccc(O)c32)c1 [Compound 8b, 4-Hydroxy-1,5,7-trimethoxy-phenanthrene] |  | > 20 µg/mL | 6.93 ± 0.19 µg/mL (≈ 24.4 µM) | 12.1 ± 0.37 µg/mL (≈ 42.5 µM) | 19.6 ± 0.22 µg/mL (≈ 68.9 µM) | > 20 µg/mL | 19.31 ± 0.08 µg/mL (≈ 67.9 µM) | 1 to 20 µg/mL | 10.1 ± 0.66 µg/mL (≈ 35.5 µM) |  |  |  |  |  |  |  |
| COc1cc(O)c2c(c1)CCc1ccc(O)c(OC)c1-2 [CA-7] |  |  |  |  |  |  |  | 1 to 20 µg/mL |  | > 20 µg/mL | > 20 µg/mL | > 20 µg/mL | > 20 µg/mL | > 20 µg/mL | 14.6 ± 0.34 µg/mL (≈ 53.7 µM) | > 20 µg/mL |
| COc1c(O)cc2c(c1OC)-c1c(O)ccc(O)c1CC2 [CA-5] |  |  |  |  |  |  |  | 1 to 20 µg/mL |  | 11.7 ± 0.13 µg/mL (≈ 40.4 µM) | 9.87 ± 0.09 µg/mL (≈ 34.2 µM) | 12.17 ± 0.03 µg/mL (≈ 42.2 µM) | > 20 µg/mL | > 20 µg/mL | 12.7 ± 0.07 µg/mL (≈ 44.1 µM) | 17.8 ± 0.4 µg/mL (≈ 61.7 µM) |
| COc1cc2ccc3c(OC)ccc(OC)c3c2c(OC)c1OC [Compound 3a, 1,4,5,6,7-Pentamethoxy-phenanthrene] |  | > 20 µg/mL | 15.55 ± 0.08 µg/mL (≈ 47.4 µM) | > 20 µg/mL | > 20 µg/mL | > 20 µg/mL | > 20 µg/mL | > 20 µg/mL | > 20 µg/mL |  |  |  |  |  |  |  |
| COc1cc2ccc3c(OC)ccc(OC)c3c2c(O)c1O [Compound 8a, 5,6-Dihydroxy-1,4,7-trimethoxy-phenanthrene] |  | 15.6 ± 1.52 µg/mL (≈ 52 µM) | 5.77 ± 0.63 µg/mL (≈ 19.2 µM) | 3.91 ± 0.07 µg/mL (≈ 13 µM) | > 20 µg/mL | > 20 µg/mL | 17 ± 0.42 µg/mL (≈ 56.6 µM) | 1 to 20 µg/mL | 19.4 ± 0.56 µg/mL (≈ 64.5 µM) |  |  |  |  |  |  |  |
| COc1cc2c(cc1O)CCc1cc(O)cc(OC)c1-2 [CA-9] |  |  |  |  |  |  |  | 1 to 20 µg/mL |  | 19.5 ± 0.58 µg/mL (≈ 71.5 µM) | 12.9 ± 0.32 µg/mL (≈ 47.3 µM) | 13 ± 0.42 µg/mL (≈ 47.7 µM) | 18.1 ± 0.26 µg/mL (≈ 66.5 µM) | > 20 µg/mL | 10.2 ± 0.27 µg/mL (≈ 37.6 µM) | > 20 µg/mL |
| COC1=CC(=O)c2ccc3c(-c4c(OC)c(OC)c(OC)c5c6c(ccc45)C(=O)CC(OC)(OC)C6=O)c(OC)c(OC)c(OC)c3c2C1=O [Compound 5e, 3,5,6,7,3′,3′,5′,6,7′-nonamethoxy-2′3′-dihydro-[8,8′]bi-1,4,1′,4′-phenanthrenequinone] |  | 6.74 ± 0.05 µg/mL (≈ 9.82 µM) | 7.38 ± 0.02 µg/mL (≈ 10.7 µM) | 6.21 ± 0.12 µg/mL (≈ 9.04 µM) | 7.49 ± 0.07 µg/mL (≈ 10.9 µM) | 8.11 ± 0.25 µg/mL (≈ 11.8 µM) | 9.4 µg/mL (≈ 13.7 µM) | 1 to 20 µg/mL | 1.24 ± 0.08 µg/mL (≈ 1.81 µM) |  |  |  |  |  |  |  |
| COc1cc2c(c(OC)c1O)-c1c(O)ccc(O)c1CC2 [CA-4] |  |  |  |  |  |  |  | 1 to 20 µg/mL |  | 19.8 ± 0.45 µg/mL (≈ 68.8 µM) | 11.1 ± 0.73 µg/mL (≈ 38.3 µM) | 15.12 ± 0.14 µg/mL (≈ 52.4 µM) | > 20 µg/mL | > 20 µg/mL | 14.3 ± 0.18 µg/mL (≈ 49.6 µM) | > 20 µg/mL |
| COc1cc2c(c(OC)c1O)C1=C(CC2)C(=O)C=CC1=O [CA-3] |  |  |  |  |  |  |  | 1 to 20 µg/mL |  | 11.9 ± 0.02 µg/mL (≈ 41.6 µM) | 6.02 ± 0.12 µg/mL (≈ 21 µM) | 12.6 ± 0.76 µg/mL (≈ 43.8 µM) | > 20 µg/mL | > 20 µg/mL | 13.2 µg/mL (≈ 46.3 µM) | 19.76 ± 0.16 µg/mL (≈ 69 µM) |
| COc1cc2ccc3c(c2c(OC)c1OC)C(=O)C=CC3=O [Compound 4a, 5,6,7-Trimethoxy-1,4-phenanthrenequinone] |  | 4.6 ± 0.06 µg/mL (≈ 15.4 µM) | 7.33 ± 0.03 µg/mL (≈ 24.6 µM) | 2.17 ± 0.01 µg/mL (≈ 7.27 µM) | 15.94 ± 0.01 µg/mL (≈ 53.4 µM) | 11.9 ± 0.12 µg/mL (≈ 40 µM) | 13.2 ± 0.38 µg/mL (≈ 44.2 µM) | 1 to 20 µg/mL | 15.68 ± 0.01 µg/mL (≈ 52.6 µM) |  |  |  |  |  |  |  |
